In US20160280688A1, “SUBSTITUTED PHENYLALANINE DERIVATIVES” (BAYER PHARMA AKTIENGESELLSCHAFT, priority 2013, published 2016):
pIC50: −log10 of the molar value. Where a name gives a salt, the structure may show the parent alone.

Key:
human and animal plasma = assay: Determination of the anticoagulatory activity: activated partial thromboplastin time (aPTT) in plasma; format: biochemical; conditions: in vitro in plasma, C.K. Prest kit, 3 min at 37° C.
Procedure: The anticoagulatory activity of the test substances is determined in vitro in human and animal plasma (for example mouse, rat, rabbit, pig and dog plasma). To this end, blood is drawn off in a mixing ratio of sodium citrate/blood of 1:9 using a 0.11 molar sodium citrate solution as receiver. Immediately after the blood has been drawn off, it is mixed thoroughly and centrifuged at about 4000 g for 15 minutes. The supernatant is pipetted off.
The activated partial thromboplastin time (aPTT) is determined in the presence of varying concentrations of test substance or the corresponding solvent using a commercial test kit (C.K. Prest from Diagnostica Stago). The test compounds are incubated with the plasma and the PTT reagent (cephalin, kaolin) at 37° C. for 3 minutes. Coagulation is then started by addition of a 25 mM aqueous calcium chloride solution, and the time when coagulation occurs is determined. The concentration of test substance which brings about a 1.5-fold extension of the aPTT is determined Activity data from this test are listed in Table B below: […]

human factor XIa = biological target: T1, human factor XIa (Homo sapiens, UniProt P03951); assay: Measurement of FXIa inhibition (fluorogenic peptide substrate Boc-Glu(OBzl)-Ala-Arg-AMC); format: biochemical; conditions: factor XIa from Kordia, 15 min preincubation, 30 min at 22° C., fluorescence
T1 construct: purchased Kordia
T1 sequence (P03951 388-625 limits assumed): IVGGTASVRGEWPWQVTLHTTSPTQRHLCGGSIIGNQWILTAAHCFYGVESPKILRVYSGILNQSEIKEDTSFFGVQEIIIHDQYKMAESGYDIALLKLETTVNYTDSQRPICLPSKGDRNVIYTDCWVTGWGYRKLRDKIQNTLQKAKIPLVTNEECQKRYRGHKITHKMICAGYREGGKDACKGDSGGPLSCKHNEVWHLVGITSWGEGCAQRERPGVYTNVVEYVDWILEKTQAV
T1 sequence (P03951 19-387 partner limits assumed): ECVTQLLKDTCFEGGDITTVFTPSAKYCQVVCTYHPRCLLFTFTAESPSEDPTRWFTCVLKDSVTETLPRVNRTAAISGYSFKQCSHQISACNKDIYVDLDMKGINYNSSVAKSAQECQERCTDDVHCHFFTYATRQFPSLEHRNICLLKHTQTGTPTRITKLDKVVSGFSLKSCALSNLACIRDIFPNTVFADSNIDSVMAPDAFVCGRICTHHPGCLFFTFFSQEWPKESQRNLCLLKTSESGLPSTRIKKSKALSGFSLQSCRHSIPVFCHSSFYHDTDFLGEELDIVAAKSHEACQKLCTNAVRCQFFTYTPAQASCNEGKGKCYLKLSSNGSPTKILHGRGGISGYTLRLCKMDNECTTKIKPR
Procedure: To determine the factor XIa inhibition of the substances according to the invention, a biochemical test system is used which utilizes the reaction of a peptidic factor XIa substrate to determine the enzymatic activity of human factor XIa. Here, factor XIa cleaves from the peptic factor XIa substrate the C-terminal aminomethylcoumarin (AMC), the fluorescence of which is measured. The determinations are carried out in microtitre plates.
Test substances are dissolved in dimethyl sulphoxide and serially diluted in dimethyl sulphoxide (3000 μM to 0.0078 μM; resulting final concentrations in the test: 50 μM to 0.00013 μM). In each case 1 μl of the diluted substance solutions are placed into the wells of white microtitre plates from Greiner (384 wells). Subsequently, the following are added successively: 20 μl of assay buffer (50 mmol/l Tris buffer pH 7.4; 100 mmol/l sodium chloride; 5 mmol/l calcium chloride; 0.1% bovine serum albumin) and 20 μl of factor XIa from Kordia (0.45 nM in assay buffer). After 15 min of incubation, the enzyme reaction is started by addition of 20 μl of the factor XIa substrate Boc-Glu(OBzl)-Ala-Arg-AMC dissolved in assay buffer (10 μM in assay buffer) from Bachem, the mixture is incubated at room temperature (22° C.) for 30 min and fluorescence is then measured (excitation: 360 nm, emission: 460 nm). The measured emissions of the test batches with test substance are compared to those of control batches without test substance (only dimethyl sulphoxide instead of test substance in dimethyl sulphoxide), and IC50 values are calculated from the concentration/activity relationships.

| Compound | aPTT (concentration of test substance which brings about a 1.5-fold extension of the aPTT) (human and animal plasma) [µmol/L] | pIC50 (human factor XIa) |
| --- | --- | --- |
| NC[C@H]1CC[C@H](C(=O)N[C@@H](Cc2ccc(-c3cccc4[nH]ncc34)cc2)C(=O)Nc2ccc(-c3nn[nH]n3)cc2)CC1 [Example 6, N-alpha-{[trans-4-(Aminomethyl)cyclohexyl]carbonyl}-4-(1H-indazol-4-yl)-N-[4-(2H-tetrazol-5-yl)phenyl]-L-phenylalaninamide hydrochloride] | 0.41 | 8.05 |
| Cn1cnc2cc(-c3ccc(C[C@H](NC(=O)[C@H]4CC[C@H](CN)CC4)C(=O)Nc4ccc(-c5nn[nH]n5)cc4)cc3)ccc21 [Example 16, N-alpha-{[trans-4-(Aminomethyl)cyclohexyl]carbonyl}-4-(1-methyl-1H-benzimidazol-5-yl)-N-[4-(2H-tetrazol-5-yl)phenyl]-L-phenylalaninamide hydrochloride] |  | 8.49 |
| Cn1cnc2ccc(-c3ccc(C[C@H](NC(=O)[C@H]4CC[C@H](CN)CC4)C(=O)Nc4ccc(-c5nn[nH]n5)cc4)cc3)cc21 [Example 15, N-alpha-{[trans-4-(Aminomethyl)cyclohexyl]carbonyl}-4-(1-methyl-1H-benzimidazol-6-yl)-N-[4-(2H-tetrazol-5-yl)phenyl]-L-phenylalaninamide hydrochloride] |  | 8.42 |
| Cn1cc(-c2ccc(C[C@H](NC(=O)C3CCC(CN)CC3)C(=O)Nc3ccc(-c4nn[nH]n4)cc3)cc2)c(=O)[nH]c1=O (stereo partly drawn) [Example 5, N-alpha-{[trans-4-(Aminomethyl)cyclohexyl]carbonyl}-4-(1-methyl-2,4-dioxo-1,2,3,4-tetrahydropyrimidin-5-yl)-N-[4-(2H-tetrazol-5-yl)phenyl]-L-phenylalaninamide hydrochloride] | 0.06 | 8.29 |
| NC[C@H]1CC[C@H](C(=O)N[C@@H](Cc2ccc(-c3cccc4[nH]nc(N)c34)cc2)C(=O)Nc2ccc(-c3nn[nH]n3)cc2)CC1 [Example 10, 4-(3-Amino-1H-indazol-4-yl)-N-alpha-{[trans-4-(aminomethyl)cyclohexyl]carbonyl}-N-[4-(2H-tetrazol-5-yl)phenyl]-L-phenylalaninamide hydrochloride] |  | 8.72 |
| Cc1nc2cc(-c3ccc(C[C@H](NC(=O)[C@H]4CC[C@H](CN)CC4)C(=O)Nc4ccc(-c5nn[nH]n5)cc4)cc3)ccc2[nH]1 [Example 7, N-alpha-{[trans-4-(Aminomethyl)cyclohexyl]carbonyl}-4-(2-methyl-1H-benzimidazol-5-yl)-N-[4-(2H-tetrazol-5-yl)phenyl]-L-phenylalaninamide hydrochloride] |  | 8.34 |
| NC[C@H]1CC[C@H](C(=O)N[C@@H](Cc2ccc(-c3cn(Cc4ccccc4)c(=O)[nH]c3=O)cc2)C(=O)Nc2ccc(-c3nn[nH]n3)cc2)CC1 [Example 17, N-alpha-{[trans-4-(Aminomethyl)cyclohexyl]carbonyl}-4-(1-benzyl-2,4-dioxo-1,2,3,4-tetrahydropyrimidin-5-yl)-N-[4-(2H-tetrazol-5-yl)phenyl]-L-phenylalaninamide hydrochloride] |  | 9.30 |
| Cc1nc2c(cc1-c1ccc(C[C@H](NC(=O)[C@H]3CC[C@H](CN)CC3)C(=O)Nc3ccc4[nH]c(=O)[nH]c4c3)cc1)NCCN2 [Example 28, N-alpha-{[trans-4-(Aminomethyl)cyclohexyl]carbonyl}-4-(6-methyl-1,2,3,4-tetrahydropyrido[2,3-b]pyrazin-7-yl)-N-(2-oxo-2,3-dihydro-1H-benzimidazol-5-yl)-L-phenylalaninamide hydrochloride] | 1.42 | 7.43 |
| Cn1c(=O)[nH]c2ccc(-c3ccc(C[C@H](NC(=O)C4CCC(CN)CC4)C(=O)Nc4ccc(-c5nn[nH]n5)cc4)cc3)cc21 (stereo partly drawn) [Example 4, N-alpha-{[trans-4-(Aminomethyl)cyclohexyl]carbonyl}-4-(3-methyl-2-oxo-2,3-dihydro-1H-benzimidazol-5-yl)-N-[4-(2H-tetrazol-5-yl)phenyl]-L-phenylalaninamide hydrochloride] | 0.24 | 8.25 |
| NC[C@H]1CC[C@H](C(=O)N[C@@H](Cc2ccc(-c3ccc4c(c3)CNC4=O)cc2)C(=O)Nc2ccc(-c3nc(C(F)(F)C(F)(F)C(=O)O)n[nH]3)cc2)CC1 [Example 29, 3-[5-(4-{[N-{[trans-4-(Aminomethyl)cyclohexyl]carbonyl}-4-(1-oxo-2,3-dihydro-1H-isoindol-5-yl)-L-phenylalanyl}amino}phenyl)-1H-1,2,4-triazol-3-yl]-2,2,3,3-tetrafluoropropanoic acid hydrochloride] | 0.28 | 8.41 |
| Cc1ccc2[nH]ncc2c1-c1ccc(C[C@H](NC(=O)[C@H]2CC[C@H](CN)CC2)C(=O)Nc2ccc(-c3nn[nH]n3)cc2)cc1 [Example 18, N-alpha-{[trans-4-(Aminomethyl)cyclohexyl]carbonyl}-4-(5-methyl-1H-indazol-4-yl)-N-[4-(2H-tetrazol-5-yl)phenyl]-L-phenylalaninamide hydrochloride] |  | 8.60 |
| NC[C@H]1CC[C@H](C(=O)N[C@@H](Cc2ccc(-c3c[nH]c(=O)[nH]c3=O)cc2)C(=O)Nc2ccc(-c3nn[nH]n3)cc2)CC1 [Example 14, N-alpha-{[trans-4-(Aminomethyl)cyclohexyl]carbonyl}-4-(2,4-dioxo-1,2,3,4-tetrahydropyrimidin-5-yl)-N-[4-(2H-tetrazol-5-yl)phenyl]-L-phenylalaninamide hydrochloride] |  | 8.17 |
| NCC1CCC(C(=O)N[C@@H](Cc2ccc(-c3cncc4ccccc34)cc2)C(=O)Nc2ccc(-c3nn[nH]n3)cc2)CC1 (stereo partly drawn) [Example 3, N-alpha-{[trans-4-(Aminomethyl)cyclohexyl]carbonyl}-4-isoquinolin-4-yl-N-[4-(2H-tetrazol-5-yl)phenyl]-L-phenylalaninamide hydrochloride] | 0.14 | 8.85 |
| NCC1CCC(C(=O)N[C@@H](Cc2ccc(-c3cnc4[nH]ccc4c3)cc2)C(=O)Nc2ccc(-c3nn[nH]n3)cc2)CC1 (stereo partly drawn) [Example 2, N-alpha-{[trans-4-(Aminomethyl)cyclohexyl]carbonyl}-4-(1H-pyrrolo[2,3-b]pyridin-5-yl)-N-[4-(2H-tetrazol-5-yl)phenyl]-L-phenylalaninamide hydrochloride] |  | 8.59 |
| Cn1cc(-c2ccc(C[C@H](NC(=O)[C@H]3CC[C@H](CN)CC3)C(=O)Nc3ccc(-c4nn[nH]n4)cc3)cc2)c(=O)n(C)c1=O [Example 11, N-alpha-{[trans-4-(Aminomethyl)cyclohexyl]carbonyl}-4-(1,3-dimethyl-2,4-dioxo-1,2,3,4-tetrahydropyrimidin-5-yl)-N-[4-(2H-tetrazol-5-yl)phenyl]-L-phenylalaninamide hydrochloride] |  | 8.49 |
| NCCn1cnc2cc(-c3ccc(C[C@H](NC(=O)C4CCC(CN)CC4)C(=O)Nc4ccc(-c5nn[nH]n5)cc4)cc3)ccc21 (stereo partly drawn) [Example 13, 4-[1-(2-Aminoethyl)-1H-benzimidazol-5-yl]-N-alpha-{[trans-4-(aminomethyl)cyclohexyl]-carbonyl]-N-[4-(2H-tetrazol-5-yl)phenyl]-L-phenylalaninamide hydrochloride] | 0.18 | 8.18 |
